Literature values, collected in US20130064803A1, “BIO-REPLENISHMENT (BioRep) FOR COGNITIVE HEALTH” (Naidu LP, priority 2011, published 2013).

Legend:
[1] = in vivo

share of an oral dose ending up in the bloodstream | SMILES | first-pass, share metabolized in the liver [1]
about 70% | N[C@@H](Cc1c[nH]c2ccc(O)cc12)C(=O)O [5-HTP, 5-hydroxy-tryptophan] | 
 | C[S+](CC[C@H](N)C(=O)O)C[C@H]1O[C@@H](n2cnc3c(N)ncnc32)[C@H](O)[C@@H]1O (some centres unmarked) [SAMe, S-adenosylmethionine] | approximately 50%
